Results from patent publication US5877185A, “Synergistic compositions useful as anti-tumor agents” (priority 1995, dated 1999).
Entries after “also recorded” stand apart in the source; their conditions may differ.

What was measured:
[1] = system: L 1210 cells; test: cytotoxic effect of IABP and INO2 BA, alone and combined, on L 1210 cell growth; type: cell-based, murine; details: Mus musculus, L1210, 72 h, three days, read-out: decrease of L 1210 cell proliferation
Procedure: 64 μM INO2 BA decreased L 1210 cell proliferation by approximately 80% over a three day growth period.

[2] = system: SIVmac239 in CEM ×174 cells; test: effect of IABP on SIVmac239 replication, p27 core antigen assay; type: cell-based, SIV
Procedure: CEM ×174 cells (3×10^5 /ml) were infected with SIVmac239 on day 0 and incubated for 3 days (37° C., 5% CO2) before treatment with IABP (0-0.5 mM). The cultures were incubated for an additional 4 days before being replenished with fresh CEM ×174 cells (3×10^5/ml) and IABP. On day 10 the levels of free virus in the supernatants of the cultures were assessed using the SIV p27 core antigen assay (Coulter Corp). The absorbance was measured at 450 nm.
The effect of IABP on the infection cycle of SIV was determined. CEM ×174 cells (3×10^5 /ml) were infected with SIVmac239 on day 0 and incubated for 3 days ([…], 5% CO2) before treatment with IABP (0-0.5 mM). The cultures were incubated for an additional 4 days before being replenished with fresh CEM ×174 cells (3×10^5/ml) and IABP. On day 10 the levels of free virus in the supernatants of the cultures were assessed using the SIV p27 core antigen assay (Coulter Copr.) The absorbance was measured at 450 nm.

[3] = system: SIVmac239 or virus isolates in CEM ×174 cells; details: Chuang et al., submitted (1994); cited from earlier work
[4] = system: cells; details: Cole et al.; cited from earlier work
[5] = system: HIV; details: Cole et al.; cited from earlier work
[6] = system: CCHC zinc fingers of pADPRT or p7 NC protein of retroviruses; details: cited from earlier work

Compound: Nc1ccc2oc(=O)ccc2c1I [IABP, 5-iodo-6-amino-1,2-benzopyrone]
- inhibition at 160 µM ([1]; IABP 160 μM): ~55%
- inhibition at 320 µM ([1]; IABP 320 μM): ~80%
- inhibition at 480 µM ([1]; IABP 480 μM): ~93%
- p27 levels ([2]; 0-0.5 mM, day 10): depresses p27 levels proportional to its concentration
- titre of virions in the supernatant ([2]; 0.3 and 0.5 mM IABP): reduced the titre of virions
- sensitivity to addition of BSO [3]: insensitive
- toxicity of IABP [4]: very low; also recorded: no toxic effect on cells; also recorded: non-toxicity
- infectious cycle of HIV [5]: blocked the infectious cycle of HIV
- influence on CCHC zinc fingers [6]: no influence
